Biological target: T1, PfGrp94 (Plasmodium falciparum glucose-regulated protein 94 kDa, endoplasmin) (Plasmodium falciparum, UniProt Q8I0V4)
T1 sequence (Q8I0V4 22-821): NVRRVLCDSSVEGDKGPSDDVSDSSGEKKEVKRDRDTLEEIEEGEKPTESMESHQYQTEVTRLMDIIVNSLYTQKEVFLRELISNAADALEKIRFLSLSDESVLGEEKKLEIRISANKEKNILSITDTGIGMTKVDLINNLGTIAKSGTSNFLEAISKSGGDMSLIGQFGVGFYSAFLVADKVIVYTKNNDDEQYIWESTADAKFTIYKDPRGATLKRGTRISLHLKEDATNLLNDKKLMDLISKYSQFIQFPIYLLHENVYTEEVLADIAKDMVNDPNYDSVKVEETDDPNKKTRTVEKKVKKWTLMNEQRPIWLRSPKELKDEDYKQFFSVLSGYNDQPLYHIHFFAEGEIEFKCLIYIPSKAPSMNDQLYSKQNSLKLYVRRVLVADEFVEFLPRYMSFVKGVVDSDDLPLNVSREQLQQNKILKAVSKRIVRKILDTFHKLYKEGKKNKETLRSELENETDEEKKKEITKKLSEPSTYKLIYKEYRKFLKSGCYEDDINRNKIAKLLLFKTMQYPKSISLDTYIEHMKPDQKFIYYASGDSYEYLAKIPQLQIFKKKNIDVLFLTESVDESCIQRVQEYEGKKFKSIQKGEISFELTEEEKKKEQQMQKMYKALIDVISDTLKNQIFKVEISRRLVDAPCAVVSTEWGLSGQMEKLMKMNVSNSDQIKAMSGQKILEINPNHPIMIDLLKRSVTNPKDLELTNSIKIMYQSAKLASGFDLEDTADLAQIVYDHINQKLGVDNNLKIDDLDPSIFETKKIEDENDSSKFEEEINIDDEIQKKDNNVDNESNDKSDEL
Experiment: malachite green ATPase inhibition
Assay type: biochemical

For `CCNC(=O)[C@H]1O[C@@H](n2cnc3c(N)ncnc32)[C@H](O)[C@@H]1O` [NECA], the EC50 was 3.53 ± 1.5 µM.
